Consider 22 compounds from patent publication US20260042753A1 (Merck Patent GmbH, priority 2019, published 2026).

Experiment [1] addresses mutant cKIT (560-576 and V654A) in GIST430/654 cell line (Homo sapiens (Human), UniProt P10721, DEL560-576/V654A). In words: Cellular testing of cKIT mutant inhibitors: phospho-Y307-cKIT Luminex assay in GIST430/654 cells. The following applies: read-out: GIST 430/654 IC50. The format is cell-based. Here is the method:
Assay Principle for Cellular Testing of cKIT Mutant Inhibitors
The GIST430/654 cell line expressing mutated constitutively active cKIT receptor tyrosine kinase ([…]560-576 and V654A) was employed for assessing cellular potency of compounds. Cellular activity of mutant cKIT was determined by the degree of cKIT autophosphorylation at tyrosine 307 using a Luminex-based bead assay. GIST430/654 cells were plated with 25,000 cells per well of a 96-well plate in 100 μl medium (85% IMDM/15% FCS supplemented with 100 nM Imatinib). At the following day compounds were added in a serial dilution for 45 min. Then, cells were lysed with 90 μl lysis buffer (20 mM Hepes pH 7.5, 200 mM NaCl, 1.5 mM MgCl2×6H2O, 0.4 mM EDTA, 1% Triton-X-100, 1% Phosphatase-Inhibitor II, 20 mM D-Glycerolphosphat, 0.1% Protease-Inhibitor Cocktail III, 0.01% Benzonase) und lysates were cleared by centrifugation through a 96-well filter plate (0.65 μm). Samples were incubated with Luminex-beads which were coupled with an anti-total cKIT antibody overnight at 4° C. under gentle agitation. For detection of phospho-Y307-cKIT a phosphospecific antibody and a species-specific PE-labelled secondary antibody were added. The amount of phospho-Y307-cKIT was determined in a Luminex 200 instrument measuring 100 events per well within 60 seconds.
Counts from samples treated with compounds were calculated as percent of control from solvent treated (0.3% DMSO) samples. Dose-response curves were fitted and IC50 values were determined using Genedata Screener software.

The target in experiment [2] is c-Kit(V654A) (Homo sapiens, UniProt P10721, V654A). In words: c-Kit(V654A) assay. The format is biochemical. Here is the method:
c-Kit(V654A) (N-terminal GST-tagged, recombinant human c-Kit, amino acids 544-end containing the V654A mutation) is incubated with 8 mM MOPS pH 7.0, 0.2 mM EDTA, 250 μM GGMEDIYEFMGGKKK, 10 mM MgAcetate and [gamma-33P-ATP](specific activity approx. 500 cpm/pmol, concentration 200 μM). The reaction is initiated by the addition of the MgATP mix. After incubation for 40 minutes at room temperature, the reaction is stopped by the addition of 3% phosphoric acid solution. 10 μL of the reaction is then spotted onto a P30 filtermat and washed three times for 5 minutes in 75 mM phosphoric acid and once in methanol prior to drying and scintillation counting.

The mark [3] stands for this setting: Table 1, cKIT autophosphorylation, compounds 45 min.
[4] abbreviates: Table 2, isoxazole derivatives presently described.
[5] abbreviates: Table 2, corresponding triazole derivatives.

Like-named read-outs stand apart in the source and are kept apart here.

Sequence of mutant cKIT (560-576 and V654A) in GIST430/654 cell line (P10721 other isoform, or with tags, fused parts or gaps V654A/del 1-25/del 560-576 limits assumed): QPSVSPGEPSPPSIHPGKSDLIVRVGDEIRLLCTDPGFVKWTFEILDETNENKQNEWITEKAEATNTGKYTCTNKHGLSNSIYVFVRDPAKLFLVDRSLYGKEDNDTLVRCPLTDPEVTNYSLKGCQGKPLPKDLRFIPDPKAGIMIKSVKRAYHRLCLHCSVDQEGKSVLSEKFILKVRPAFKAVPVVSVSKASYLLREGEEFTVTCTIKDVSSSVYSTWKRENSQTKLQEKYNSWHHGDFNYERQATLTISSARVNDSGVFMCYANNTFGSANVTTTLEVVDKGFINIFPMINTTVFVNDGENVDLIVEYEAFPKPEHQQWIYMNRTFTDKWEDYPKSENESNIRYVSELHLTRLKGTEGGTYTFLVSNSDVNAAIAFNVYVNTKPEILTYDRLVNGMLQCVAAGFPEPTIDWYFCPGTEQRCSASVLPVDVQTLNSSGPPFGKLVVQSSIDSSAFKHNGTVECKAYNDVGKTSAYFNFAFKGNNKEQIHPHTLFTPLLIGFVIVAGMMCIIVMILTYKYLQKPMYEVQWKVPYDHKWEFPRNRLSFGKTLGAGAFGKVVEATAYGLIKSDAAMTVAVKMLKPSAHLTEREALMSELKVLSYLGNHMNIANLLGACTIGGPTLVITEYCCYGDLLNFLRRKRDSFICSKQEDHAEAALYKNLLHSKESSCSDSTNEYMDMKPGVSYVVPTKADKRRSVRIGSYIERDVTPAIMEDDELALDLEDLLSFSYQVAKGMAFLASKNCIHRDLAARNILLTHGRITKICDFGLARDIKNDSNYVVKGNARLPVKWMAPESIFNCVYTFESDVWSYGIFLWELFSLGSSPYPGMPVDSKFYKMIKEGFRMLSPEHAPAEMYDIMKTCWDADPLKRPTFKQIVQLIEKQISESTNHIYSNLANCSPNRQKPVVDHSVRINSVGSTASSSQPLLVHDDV

`COCCOc1cc2[nH]nc(-c3cc(-c4ccc(C(=O)N5CC[C@H]6CNC(=O)[C@H]65)cc4)no3)c2cc1F` (relative stereo) [A89, (cis)-1-(4-{5-[5-fluoro-6-(2-methoxyethoxy)-1H-indazol-3-yl]-1,2-oxazol-3-yl}benzoyl)-octahydropyrrolo[3,4-b]pyrrol-6-one]: the IC50 came to 320 nM in experiment [1] (setting [3]) and 0.57 nM in experiment [2] (Table 1, 200 μM ATP). In the case of `COCCOc1cc2[nH]nc(-c3cc(-c4ccc(N5CC[C@@H]6[C@H]5CCCN6C)cc4)no3)c2cc1F` (relative stereo) [A124, 3-(3-{4-[(cis)-4-methyl-octahydro-1H-pyrrolo[3,2-b]pyridin-1-yl]phenyl}-1,2-oxazol-5-yl)-5-fluoro-6-(2-methoxyethoxy)-1H-indazole], the IC50 was 85 nM in experiment [1] (setting [3]) and 0.35 nM in experiment [2] (Table 1, 200 μM ATP). Consider `COCCOc1cc2[nH]nc(-c3cc(-c4ccc(N5CC[C@H]6[C@@H]5CCN6C)cc4)no3)c2cc1F` (relative stereo) [A125, 3-(3-{4-[(cis)-4-methyl-octahydropyrrolo[3,2-b]pyrrol-1-yl]phenyl}-1,2-oxazol-5-yl)-5-fluoro-6-(2-methoxyethoxy)-1H-indazole], for which the IC50 in experiment [1] (setting [3]) amounted to 230 nM; in experiment [2] (Table 1, 200 μM ATP) it was 1.9 nM. For the compound `COCCOc1cc2[nH]nc(-c3cc(-c4ccc(N5CC[C@@H]6[C@@H]5CCN6C)cc4)no3)c2cc1F` (relative stereo) [A126, 3-(3-{4-[(trans)-4-methyl-octahydropyrrolo[3,2-b]pyrrol-1-yl]phenyl}-1,2-oxazol-5-yl)-5-fluoro-6-(2-methoxyethoxy)-1H-indazole], the IC50 came out at 200 nM in experiment [1] (setting [3]) and 1.7 nM in experiment [2] (Table 1, 200 μM ATP). With `COCCOc1cc2[nH]nc(-c3cc(-c4ccc(C(=O)N5C[C@H]6CC(=O)N[C@H]6C5)cc4)no3)c2cc1F` (relative stereo) [A203, (cis)-5-(4-{5-[5-fluoro-6-(2-methoxyethoxy)-1H-indazol-3-yl]-1,2-oxazol-3-yl}benzoyl)-octahydropyrrolo[2,3-c]pyrrol-2-one], the IC50 was determined as 560 nM in experiment [1] (setting [3]) and 1.4 nM in experiment [2] (Table 1, 200 μM ATP).

For `COCCOc1cc2[nH]nc(-c3cc(-c4ccc(C(=O)N5C[C@H]6COCC[C@H]6C5)cc4)no3)c2cc1F` (relative stereo) [A214, 3-(3-{4-[(cis)-octahydropyrano[3,4-c]pyrrole-2-carbonyl]phenyl}-1,2-oxazol-5-yl)-5-fluoro-6-(2-methoxyethoxy)-1H-indazole], the IC50 turned out to be 37 nM in experiment [1] (setting [3]) and 0.44 nM in experiment [2] (Table 1, 200 μM ATP). Take `COCCOc1cc2[nH]nc(-c3cc(-c4ccc(C(=O)N5CC[C@@H]6COC[C@@H]6C5)cc4)no3)c2cc1F` (relative stereo) [A215, 3-(3-{4-[(cis)-octahydrofuro[3,4-c]pyridine-5-carbonyl]phenyl}-1,2-oxazol-5-yl)-5-fluoro-6-(2-methoxyethoxy)-1H-indazole]: the IC50 turned out to be 35 nM in experiment [1] (setting [3]) and 0.76 nM in experiment [2] (Table 1, 200 μM ATP). As for `CC(C)(O)C1CCCN1C(=O)c1ccc(-c2cc(-c3n[nH]c4cc(C(F)(F)F)ccc34)on2)cc1` (stereo not shown) [A1, 2-[1-(4-{5-[6-(trifluoromethyl)-1H-indazol-3-yl]-1,2-oxazol-3-yl}benzoyl)pyrrolidin-2-yl]propan-2-ol], the IC50 in experiment [1] (setting [3]) was 350 nM; in experiment [2] (Table 1, 200 μM ATP) it was 15 nM. For the compound `COCCOc1ccc2c(-c3cc(-c4ccc(C(=O)N5CCC[C@@H]5C(C)(C)O)cc4)no3)n[nH]c2c1` [A2, 2-[(2R)-1-(4-{5-[6-(2-methoxyethoxy)-1H-indazol-3-yl]-1,2-oxazol-3-yl}benzoyl)pyrrolidin-2-yl]propan-2-ol], the IC50 in experiment [1] (setting [3]) was found to be 250 nM; in experiment [2] (Table 1, 200 μM ATP), 4.8 nM.

As to `COCCOc1cc2[nH]nc(-c3cc(-c4ccc(C(=O)N5CCN(C)C[C@@H]5C)cc4)no3)c2cc1F` [A3, 3-(3-{4-[(2S)-2,4-dimethylpiperazine-1-carbonyl]phenyl}-1,2-oxazol-5-yl)-5-fluoro-6-(2-methoxyethoxy)-1H-indazole], the IC50 was determined as 38 nM in experiment [1] (setting [3]); 38 nM in experiment [1] (setting [4]); 1.4 nM in experiment [2] (Table 1, 200 μM ATP); 1.4 nM in experiment [2] (setting [4]). With `CC(C)(O)[C@@H]1CCCN1C(=O)c1ccc(-c2cc(-c3n[nH]c4cc(Br)ccc34)on2)cc1` [A4, {4-[5-(6-bromo-1H-indazol-3-yl)-isoxazol-3-yl]-phenyl}-[(S)-2-(1-hydroxy-1-methyl-ethyl)-pyrrolidin-1-yl]-methanone], the IC50 worked out at 330 nM in experiment [1] (setting [3]) and 13 nM in experiment [2] (Table 1, 200 μM ATP). For the compound `COCCOc1cc2[nH]nc(-c3cc(-c4ccc(C(=O)N5CCC[C@H]5C(C)(C)O)cc4)no3)c2cc1F` [A5, 2-[(2S)-1-(4-{5-[5-fluoro-6-(2-methoxyethoxy)-1H-indazol-3-yl]-1,2-oxazol-3-yl}benzoyl)pyrrolidin-2-yl]propan-2-ol], the IC50 in experiment [1] (setting [3]) came out at 20 nM; in experiment [2] (Table 1, 200 μM ATP) it was 0.55 nM. `COCCOc1cc2[nH]nc(-c3cc(-c4ccc(C(=O)N(C)C)cc4)no3)c2cc1C#N` [A6, 4-{5-[5-cyano-6-(2-methoxyethoxy)-1H-indazol-3-yl]-1,2-oxazol-3-yl}-N,N-dimethylbenzamide]: the IC50 in experiment [1] (setting [3]) was 150 nM; in experiment [2] (Table 1, 200 μM ATP), 4.1 nM. Consider `COC(=O)c1ccc2c(-c3cc(-c4ccc(C(=O)N(C)C)cc4)no3)n[nH]c2c1` [A19, methyl 3-{3-[4-(dimethylcarbamoyl)phenyl]-1,2-oxazol-5-yl}-1H-indazole-6-carboxylate], for which the IC50 in experiment [2] (Table 1, 200 μM ATP) amounted to 8.2 nM. With `CNC(=O)c1ccc2c(-c3cc(-c4ccc(C(=O)N(C)C)cc4)no3)n[nH]c2c1` [A24, 3-[3-(4-dimethylcarbamoyl-phenyl)-isoxazol-5-yl]-1H-indazole-6-carboxylic acid methylamide], the IC50 in experiment [2] (Table 1, 200 μM ATP) is 88 nM. Consider `COCCOc1cc2[nH]nc(-c3cc(-c4cncs4)no3)c2cc1F` [A48, 5-fluoro-6-(2-methoxyethoxy)-3-[3-(1,3-thiazol-5-yl)-1,2-oxazol-5-yl]-1H-indazole], for which the IC50 in experiment [2] (Table 1, 200 μM ATP) worked out at 13 nM.

With `COCCOc1cc2[nH]nc(-c3cc(-c4ncc(C(=O)N5CC(N6CCOCC6)C5)s4)no3)c2cc1F` [A83, 5-fluoro-6-(2-methoxyethoxy)-3-(3-{5-[3-(morpholin-4-yl)azetidine-1-carbonyl]-1,3-thiazol-2-yl}-1,2-oxazol-5-yl)-1H-indazole], the IC50 in experiment [2] (Table 1, 200 μM ATP) is 76 nM.

With `COCCOc1cc2[nH]nc(-c3cc(-c4ncc(C(=O)N5CC(F)C5)s4)no3)c2cc1F` [A86, 5-fluoro-3-{3-[5-(3-fluoroazetidine-1-carbonyl)-1,3-thiazol-2-yl]-1,2-oxazol-5-yl}-6-(2-methoxyethoxy)-1H-indazole], in experiment [2] (Table 1, 200 μM ATP), the IC50 was 69 nM. `COCCOc1cc2[nH]nc(-c3cc(-c4ccc(N5CCS(=O)(=O)CC5)cc4)no3)c2cc1F` [A122, 4-(4-{5-[5-fluoro-6-(2-methoxyethoxy)-1H-indazol-3-yl]-1,2-oxazol-3-yl}phenyl)-1lambda6-thiomorpholine-1,1-dione]: the IC50 in experiment [2] (Table 1, 200 μM ATP) stood at 54 nM. In experiment [2] (Table 1, 200 μM ATP), `COCCOc1cc2[nH]nc(-c3cc(-c4ccc(OC)nc4)no3)c2cc1F` [A130, 5-fluoro-6-(2-methoxy-ethoxy)-3-[3-(6-methoxy-pyridin-3-yl)-isoxazol-5-yl]-1H-indazole] came in with an IC50 of 27 nM.

With `COCCOc1cc2[nH]nc(-c3cn(-c4ccc(C(=O)N5CCOCC5)cc4)nn3)c2cc1F` [reference compound], the IC50 in experiment [1] (setting [5]) worked out at 490 nM. `COCCOc1cc2[nH]nc(-c3cn(-c4ccc(C(=O)N(C)C)cc4)nn3)c2cc1F` [reference compound] yielded an IC50 in experiment [2] (setting [5]) of 11 nM.
